In patent US7115268B1, “Peptides useful for reducing symptoms of toxic shock syndrome and septic shock” (The Rockefeller University, priority 1997, dated 2006):
“And” between values parts separate entries of the source, which are not always exact repeats. Equal entries are not always repeated. “Also recorded” adds a separate entry of the source. Where two headings read alike, the source gives them in different places.

What was measured:
[1] = design: species or system New Zealand White rabbits; conditions: rabbit, in vivo; for antibody titers to the immunizing peptide (ELISA): sc
[2] = design: species or system mice; conditions: mouse, in vivo
PBMC stimulated with SEB = format: cell-based, human; conditions: 72 hours
PBMC stimulated with SEC = format: cell-based, human; conditions: 72 hours
PBMC stimulated with SED = format: cell-based, human; conditions: 72 hours
[3] = system: PBMC stimulated with SPEC; format: cell-based, human; conditions: 72 hours
[4] = system: PBMC stimulated with SPEA; format: cell-based, human; conditions: 72 hours
[5] = system: PBMC stimulated with TSST-1; format: cell-based, human; conditions: 72 hours
[6] = system: PBMC stimulated with SPEG; format: cell-based, human; conditions: 72 hours
[7] = system: PBMC stimulated with SPEH; format: cell-based, human; conditions: 72 hours
[8] = system: PBMC stimulated with SPEZ; format: cell-based, human; conditions: 72 hours
[9] = system: purified MHC class II molecules; format: binding
SEB = SEB (Staphylococcus aureus, UniProt P01552); conditions: mouse, in vivo
SEB, sequence (P01552 28-266 limits assumed): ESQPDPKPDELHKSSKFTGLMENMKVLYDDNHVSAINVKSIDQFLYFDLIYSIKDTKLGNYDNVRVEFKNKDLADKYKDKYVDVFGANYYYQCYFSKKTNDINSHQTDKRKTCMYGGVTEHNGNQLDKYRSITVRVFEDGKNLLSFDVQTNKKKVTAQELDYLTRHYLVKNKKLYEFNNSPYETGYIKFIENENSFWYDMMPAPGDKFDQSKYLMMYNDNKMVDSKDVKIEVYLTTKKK

SPEA = SPEA (Streptococcus pyogenes phage T12, UniProt P0DJY8); conditions: mouse, in vivo
SPEA, sequence (P0DJY8 31-251): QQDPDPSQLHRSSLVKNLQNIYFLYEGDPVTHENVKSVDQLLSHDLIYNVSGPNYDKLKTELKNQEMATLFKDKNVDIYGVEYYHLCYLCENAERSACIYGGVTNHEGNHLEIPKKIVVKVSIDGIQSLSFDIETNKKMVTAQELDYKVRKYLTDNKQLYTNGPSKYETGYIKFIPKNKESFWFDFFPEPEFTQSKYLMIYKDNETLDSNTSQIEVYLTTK

TSST-1 = TSST-1 (Staphylococcus aureus, UniProt P06886); conditions: mouse, in vivo
TSST-1, sequence (P06886 41-234 limits assumed): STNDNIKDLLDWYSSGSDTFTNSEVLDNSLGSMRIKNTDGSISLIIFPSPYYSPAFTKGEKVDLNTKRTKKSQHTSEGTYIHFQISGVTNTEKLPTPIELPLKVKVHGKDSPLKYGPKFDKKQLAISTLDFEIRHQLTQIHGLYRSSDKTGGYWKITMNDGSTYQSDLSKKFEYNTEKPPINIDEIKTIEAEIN

For “CGKKNVTVQELDYKIRKYLVDNKKLYGC* [peptide 6346]”, the “antibody titers to the immunizing peptide (ELISA)” value (“antibody titers” below) [1] was “high titers”.

For CMYGGVTEHEGN [peptide 6343], the “induction of detectable antibodies” value [1] was “does not induce detectable antibodies”, the “induction of detectable antibodies” value [2] was “does not induce detectable antibodies” and the “inhibition of blastogenesis (tritiated thymidine incorporation)” value (PBMC stimulated with SEB) was “inhibited blastogenesis”. The “inhibition of blastogenesis, dose response” value (PBMC stimulated with SEB) was “dose-response inhibition of blastogenesis”, the “inhibitory activity of SEB compared with peptide 6346 or peptide 6348” value (PBMC stimulated with SEB) was “more inhibitory activity” and the “inhibition of blastogenesis (tritiated thymidine incorporation)” value (PBMC stimulated with SEC) was “inhibited blastogenesis”. For the same substance, the “inhibition of blastogenesis (tritiated thymidine incorporation)” value (PBMC stimulated with SED) was “inhibited blastogenesis”, the “inhibition of blastogenesis (tritiated thymidine incorporation)” value [3] was “inhibited blastogenesis” and the “inhibition of blastogenesis (tritiated thymidine incorporation)” value [4] was “inhibited blastogenesis”. For the same substance, the “inhibition of blastogenesis (tritiated thymidine incorporation)” value [5] was “inhibited blastogenesis”, the “inhibition of blastogenesis (tritiated thymidine incorporation)” value [6] was “inhibited blastogenesis” and the “inhibition of blastogenesis (tritiated thymidine incorporation)” value [7] was “inhibited blastogenesis”. For the same substance, the “inhibition of blastogenesis (tritiated thymidine incorporation)” value [8] was “inhibited blastogenesis”, the “binding to the MHC complex” value [9] was “binds very strongly” and the “competition for the site of SEB binding on MHC (decreased anti-SEB antibody binding)” value [9] was “able to compete effectively; also recorded: decreased anti-SEB binding at increased concentrations”. For the same substance, the “Alive/Total SEB” value (SEB) was 5 out of 6 and 5/6 (83%), the “Alive/Total SEB, percent alive” value (SEB) was 5/6 (83%) and the “Alive/Total SPEA” value (SPEA) was 2 out of 2 and 2/2 (100%). The “Alive/Total SPEA, percent alive” value (SPEA) was 2/2 (100%), the “Alive/Total TSST-1” value (TSST-1) was 2 out of two and 2/2 (100%) and the “Alive/Total TSST-1, percent alive” value (TSST-1) was 2/2 (100%).

In the case of CMYGGVTEHEGNGC* [compound 6344], the “antibody titers” value [1] is reported as “high titers”.

With “CMYGGVTEHEGNKKNVTVQELDYKIRKYLVDNKKLYGC* [peptide 6348]” the “antibody titers” value [1] was “high titer antibodies; also recorded: significant antibody titers”.
